Source: patent US7361690B2, “Compositions and methods for the treatment of urinary incontinence” (Gruenenthal GmbH, priority 2000, dated 2008)
Marks after values point to notes of the source that are not given here.

Key:
[1] = tested on: female Sprague-Dawley rats; assay: Cystometry tests on conscious fresh rats; type: in vivo, rat; conditions: effect maximum, mean of 3 micturition cycles
Description: Cystometry investigations were carried out on fresh female Sprague-Dawley rats according to the method of Ishizuka et. al. ((1997), Naunyn-Schmiedeberg's Arch. Pharmacol. 355: 787-793). Three days after implantation of bladder and venous catheters the animals were investigated in the conscious state while freely moving. The bladder catheter was connected to a pressure gauge and an injection pump. The animals were placed in metabolic cages that enable the volume of urine to be measured. Physiological saline solution was infused (10 ml/hour) into the emptied bladder and the bladder pressure and volume of urine were continuously recorded. After a stabilization phase a 20-minute phase was recorded that was characterized by normal, reproducible micturition cycles. The following parameters among others were measured: • threshold pressure (TP), bladder pressure immediately before micturition, • bladder capacity (BC), residual volume after prior micturition plus volume of infused solution during the filling phase, • intercontraction interval (ICI), the time interval between consecutive micturition.
An increase in the threshold pressure (TP) indicates an important therapeutic effect in one of the medical conditions suitable for treatment with the method of the invention. Also, the intercontraction interval (ICI) is an important parameter for measuring the physiological effectiveness of a substance in the treatment of urinary incontinence, as is the bladder capacity (BC). In this connection, on account of the widely differing causes of the symptoms of these disease patterns it is not necessary to influence positively all three parameters in order for a medicament to be effective.
After recording three reproducible micturition cycles to provide a baseline value, the test substances 24 (1.0; 3.0; 5.0 mg/kg), 25 (1.5 mg/kg) and 26 (3.0 mg/kg) in a vehicle comprising 0.9% NaCl were applied intravenously and the effect on the cystometric parameters was recorded at 90 to 120 minutes. In the effect maximum the mean value of 3 micturition cycles was determined and recorded as a percentage change compared to the baseline value (Table 1).

[2] = tested on: narcotized ventilated rats; assay: Cystometry investigations in narcotized fresh rats (suppression of rhythmic spontaneous bladder contractions); type: in vivo, rat; conditions: intravenous, cumulative, lowest dose at which contractions disappeared for the first time over a period of 10 minutes
Description: The cystometric investigation was carried out on fresh female rats according to the method of Kimura et al. (Kimura et al., 1996, Int. J. Urol. 3: 218-227). The abdomen of narcotized ventilated rats is opened and the ureter is ligated. The urine is drawn off from the kidneys. A catheter is inserted into the bladder and secured in place. […] The test substance is applied intravenously in a cumulative manner after stable starting values were reached. An effect on the bladder function is manifested by the suppression of the spontaneous contractions. The disappearance of the contractions over a period of 10 minutes serves as a parameter for their suppression.
With all the substances listed there was a measurable suppression of the spontaneous contractions in rats.

Row | Compound | BC Bladder Capacity, change compared to the baseline value ([1]; 3.0 mg/kg iv) | ICI Inter-Contraction Interval, change compared to the baseline value ([1]; 3.0 mg/kg iv) | TP Threshold Pressure, change compared to the baseline value ([1]; 3.0 mg/kg iv) | Mean Value of Lowest Dose for Contraction Suppression [2] | other results
1 | COc1cccc([C@@]2(O)C[C@H](O)CC[C@@H]2CN(C)C)c1.Cl (racemic) [Compound 24, (1RS,3RS,6RS)-6-dimethylaminomethyl-1-(3-methoxyphenyl)-cyclohexane-1,3-diol, hydrochloride] | −16.0%* | −16%* | +94.0%** |  | BC Bladder Capacity, change compared to the baseline value ([1]; 1.0 mg/kg iv): −8.0%; ICI Inter-Contraction Interval, change compared to the baseline value ([1]; 1.0 mg/kg iv): −15%**; TP Threshold Pressure, change compared to the baseline value ([1]; 1.0 mg/kg iv): +44.0%***; BC Bladder Capacity, change compared to the baseline value ([1]; 5.0 mg/kg iv): −26.0%; ICI Inter-Contraction Interval, change compared to the baseline value ([1]; 5.0 mg/kg iv): −21.2%; TP Threshold Pressure, change compared to the baseline value ([1]; 5.0 mg/kg iv): +69.0%*
2 | CN(C)C[C@H]1CC[C@@H](O)C[C@]1(O)c1cccc(O)c1.Cl (racemic) [Compound 26, (1RS,3RS,6RS)-6-dimethylaminomethyl-1-(3-hydroxyphenyl)-cyclohexane-1,3-diol, hydrochloride] | +29.0%*** | +27.0%* | +86.0%*** |  | 
3 | COc1cccc([C@@]2(O)C[C@@H](O)CC[C@@H]2CN(C)C)c1.Cl (racemic) [Compound 27, (1RS,3SR,6RS)-6-dimethylaminomethyl-1-(3-methoxyphenyl)-cyclohexane-1,3-diol, hydrochloride] |  |  |  | 115 (n = 2) mg/kg | 
4 | COc1cccc([C@@]2(O)C[C@H](O)CC[C@@H]2CN(C)C)c1.Cl [Compound 25, (+)-(1R,3R,6R)-6-dimethylaminomethyl-1-(3-methoxyphenyl)-cyclohexane-1,3-diol, hydrochloride] |  |  |  |  | BC Bladder Capacity, change compared to the baseline value ([1]; 1.5 mg/kg iv): −14.0%*; ICI Inter-Contraction Interval, change compared to the baseline value ([1]; 1.5 mg/kg iv): −9.0%; TP Threshold Pressure, change compared to the baseline value ([1]; 1.5 mg/kg iv): +62.0%*
5 | C[C@H]1CC[C@H](CN(C)C)[C@@](O)(c2cccc(O)c2)C1.Cl [Compound 28, (+)-(1R,2R,5S)-3-(2-dimethylaminomethyl-1-hydroxy-5-methylcyclohexyl)-phenol, hydrochloride] |  |  |  | 16.7 (n = 3) mg/kg | 
6 | (1RS,2RS,5RS)-3-(2-dimethylaminomethyl-1-hydroxy-5-trifluoromethylcyclohexyl)-phenol,hydrochloride [Compound 29] |  |  |  | 23.3 (n = 3) mg/kg | 
